# Assay results published in the RepoRT retention time repository (doi:10.1021/acs.analchem.2c02893).
# Test: RP, Thermo Scientific Acclaim RSLC 120 C18, 100 × 2.1 mm, 2.2 µm, 30 °C, 0.2 mL/min, estimated dead time 1.1 min; A: 90% water + 10% methanol + 0.01% formic acid + 5 mM ammonium formate, pH 3.61; B: methanol + 0.01% formic acid + 5 mM ammonium formate, pH 3.61; gradient (min/%B) 0/1 1/1 2/39 13/99.9 15/99.9 15.1/1 20.1/1
# Conditions: stereoisomer not certain
row,LC retention time,Compound
1,11.8 min,COCCC(N)C(=O)O (configuration not stated) [AMB]
2,5.06 min,CC(=O)N(C)N(C(=O)C(=O)N(C)C)c1ccccc1 [AMDOPH]
3,1.4 min,CC(=O)NCCCS(=O)(=O)O [Acamprosat]
4,4.78 min,CCCC(=O)Nc1ccc(OCC(O)CNC(C)C)c(C(C)=O)c1 (configuration not stated) [Acebutolol]
5,9.2 min,O=C(O)COC(=O)Cc1ccccc1Nc1c(Cl)cccc1Cl [Aceclofenac]
6,9.9 min,COc1ccc2c(c1)c(CC(=O)OCC(=O)O)c(C)n2C(=O)c1ccc(Cl)cc1 [Acemetacin]
7,7.47 min,CC(=O)c1ccc2c(c1)N(CCCN(C)C)c1ccccc1S2 [Acepromazine]
8,7.26 min,CC(=O)c1ccc2c(c1)N(CC(C)N(C)C)c1ccccc1S2 (configuration not stated) [Aceprometazine]
9,5.67 min,CC(=O)Nc1ccc(-c2ccc(C=NN3CC(=O)NC3=O)o2)cc1 [Acetaminodantrolene]
10,3.43 min,CC(=O)Nc1nnc(S(N)(=O)=O)s1 [Acetazolamide]
11,4.46 min,CC(=O)OCCC(SC(C)=O)=C(C)N(C=O)Cc1cnc(C)nc1N [Acetiamine]
12,7.5 min,CCCc1nn(C)c2c(=O)[nH]c(-c3cc(C(=O)CN4CC(C)NC(C)C4)ccc3OCC)nc12 (configuration not stated) [Acetildenafil-Dimethyl]
13,6.94 min,CCCc1nn(C)c2c(=O)[nH]c(-c3cc(C(=O)CN4CCN(CCO)CC4)ccc3OCC)nc12 [Acetildenafil-Hydroxy]
14,6.99 min,CCCc1nn(C)c2c(=O)[nH]c(-c3cc(C(=O)CN4CCN(C)CC4)ccc3OCC)nc12 [Acetildenafil-Nor]
15,7.01 min,CCCc1nn(C)c2c(=O)[nH]c(-c3cc(C(=O)CN4CCN(CC)CC4)ccc3OCC)nc12 [Acetildenafil]
16,7.72 min,CC(=O)c1ccc(S(=O)(=O)NC(=O)NC2CCCCC2)cc1 [Acetohexamide]
17,4.8 min,CC(=O)Oc1ccccc1C(=O)O [Acetylsalicylic acid_NH4 adduct]
18,9.65 min,CSC(=O)c1cccc2nnsc12 [Acibenzolar-S-Methyl]
19,2.34 min,Nc1nc2c(ncn2COCCO)c(=O)[nH]1 [Aciclovir]
20,6.66 min,Cc1ccc(C(=CCN2CCCC2)c2cccc(C=CC(=O)O)n2)cc1 [Acrivastine]
21,3.56 min,CCOc1ccc(S(=O)(=O)O)c2cccnc12 [Actinoquinol]
22,2.43 min,Nc1ncnc2nc[nH]c12 [Adenine]
23,8.68 min,COc1ccc2cccc(CCNC(C)=O)c2c1 [Agomelatine]
24,7.19 min,CCc1cccc(CC)c1N(COC)C(=O)CS(=O)(=O)O [Alachlor-ESA]
25,5.86 min,CCCS(=O)(=O)c1ccc2nc(NC(=O)OC)[nH]c2c1 [Albendazole sulfone]
26,9.19 min,CCCSc1ccc2nc(NC(=O)OC)[nH]c2c1 [Albendazole]

row,LC retention time,Compound
1,3.23 min,CC(C)(C)NCC(O)c1ccc(O)c(CO)c1 (configuration not stated) [Albuterol / Salbutamol]
2,7.78 min,CC12CCC(=O)C=C1CCC1C2C(O)CC2(C=O)C(C(=O)CO)CCC12 (configuration not stated) [Aldosterone]
3,8.87 min,COCCCOc1cc(CC(CC(N)C(O)CC(C(=O)NCC(C)(C)C(N)=O)C(C)C)C(C)C)ccc1OC (configuration not stated) [Aliskiren]
4,6.09 min,CC(NC(=O)C(N)CC(=O)O)C(=O)NC1C(C)(C)SC1(C)C (configuration not stated) [Alitame]
5,3.62 min,C=CCN1CCCC1CNC(=O)c1cc2n[nH]nc2cc1OC (configuration not stated) [Alizapride]
6,2.19 min,O=c1[nH]cnc2[nH]ncc12 [Allopurinol]
7,13.4 min,C=CCNc1nc(NCC=C)nc(N2CCN(C(c3ccc(F)cc3)c3ccc(F)cc3)CC2)n1 [Almitrine]
8,6.71 min,C=CCc1ccccc1OCC(O)CNC(C)C (configuration not stated) [Alprenolol]
9,10.1 min,CN(C)c1nc(N(C)C)nc(N(C)C)n1 [Altretamine]
10,6.07 min,CCC(CN(C)C)(CN(C)C)OC(=O)c1ccccc1 [Alypin]
11,4.86 min,NC12CC3CC(CC(C3)C1)C2 [Amantadine]
12,6.04 min,Nc1c(Br)cc(Br)cc1CNC1CCC(O)CC1 (configuration not stated) [Ambroxol]
13,11.2 min,CC(=O)OCC(=O)C12OC3(CCCC3)OC1CC1C3CCC4=CC(=O)C=CC4(C)C3(F)C(O)CC12C (configuration not stated) [Amcinonide]
14,2.54 min,CNCC(O)c1cccc(NS(C)(=O)=O)c1 (configuration not stated) [Amidephrine]
15,15 min,CCCCCCCCCCCCCC(=O)NCCC[N+](C)(C)CCCS(=O)(=O)O [Amidosulfobetaine-14]
16,6.77 min,COc1cc(OC)nc(NC(=O)NS(=O)(=O)N(C)S(C)(=O)=O)n1 [Amidosulfuron]
17,3.68 min,NC(N)=NC(=O)c1nc(Cl)c(N)nc1N [Amiloride]
18,5.21 min,Cc1c(N(C)C)c(=O)n(-c2ccccc2)n1C [Aminophenazone. Amidopyrin]
19,12.1 min,CCCCc1oc2ccccc2c1C(=O)c1cc(I)c(OCCN(CC)CC)c(I)c1 [Amiodarone]
20,4.33 min,CC[N+]1([O-])CCCC1CNC(=O)c1cc(S(=O)(=O)CC)c(N)cc1OC (configuration not stated) [Amisulpride-N-Oxide]
21,3.88 min,CCN1CCCC1CNC(=O)c1cc(S(=O)(=O)CC)c(N)cc1OC (configuration not stated) [Amisulpride]
22,8.23 min,CN(C)CCC=C1c2ccccc2CCc2ccccc21 [Amitriptyline]
23,8.36 min,CCOC(=O)C1=C(COCCN)NC(C)=C(C(=O)OC)C1c1ccccc1Cl (configuration not stated) [Amlodipine]
24,12.9 min,CCC(C)(C)c1ccc(CC(C)CN2CC(C)OC(C)C2)cc1 (configuration not stated) [Amorolfine]
25,7.64 min,Clc1ccc2c(c1)C(N1CCNCC1)=Nc1ccccc1O2 [Amoxapine]

row,Compound,LC retention time
1,O=C(NC12CC3CC(CC(C3)C1)C2)c1nn(CCCCCF)c2ccccc12 [AKB48-5F (5F-APINACA)],12.9 min
2,O=C(c1ccccc1I)c1cn(CCCCCF)c2ccccc12 [AM-694],10.5 min
3,CN1CCCCC(n2cc(C(=O)c3cccc4ccccc34)c3ccccc32)C1 (configuration not stated) [AM-1220-Azepane],8.61 min
4,CN1CCCCC1Cn1cc(C(=O)c2cccc3ccccc23)c2ccccc21 (configuration not stated) [AM-1220],8.09 min
5,CN1CCCCC1Cn1cc(C(=O)C23CC4CC(CC(C4)C2)C3)c2ccccc21 (configuration not stated) [AM-1248],9.94 min
6,O=C(c1cccc2ccccc12)c1cn(CCCCCF)c2ccccc12 [AM-2201],11.2 min
7,N#CCCCCn1cc(C(=O)c2cccc3ccccc23)c2ccccc21 [AM-2232],9.69 min
8,CN1CCCCC1Cn1cc(C(=O)c2ccccc2I)c2ccccc21 (configuration not stated) [AM-2233],7.11 min
9,COC(=O)C(NC(=O)c1nn(CCCCCF)c2ccccc12)C(C)C (configuration not stated) [AMB-5F],10.5 min
10,CC(N)Cc1c[nH]c2ccccc12 (stereo not drawn) [AMT (Alpha-Methyltryptamine)],4.44 min
11,CCCCCn1cc(C(=O)NC23CC4CC(CC(C4)C2)C3)c2ccccc21 [APICA],13.2 min
12,CC(=O)OC1CN2CCC1CC2 (configuration not stated) [Aceclidine],4.87 min
13,COP(=O)(NC(C)=O)SC (configuration not stated) [Acephate],3.11 min
14,CC(=NC#N)N(C)Cc1ccc(Cl)nc1 [Acetamiprid],5.17 min
15,CCOCN(C(=O)CCl)c1c(C)cccc1CC [Acetochlor],10.2 min
16,O=C(O)c1cc(Oc2ccc(C(F)(F)F)cc2Cl)ccc1[N+](=O)[O-] [Acifluorfen],8.95 min
17,Nc1c([N+](=O)[O-])ccc(Oc2ccccc2)c1Cl [Aclonifen],10.9 min
18,CCN1CC2(COC)C(O)CC(OC)C34C5CC6(O)C(OC)C(O)C(OC(C)=O)(C5C6OC(=O)c5ccccc5)C(C(OC)C23)C14 (configuration not stated) [Aconitine],7.09 min

row,Compound,LC retention time
1,CC1(C)C(C=CC(=O)OC(C(F)(F)F)C(F)(F)F)C1C(=O)OC(C#N)c1cccc(Oc2ccccc2)c1 (configuration not stated) [Acrinathrin],9.17 min
2,CN(C)Cc1nnc2n1-c1ccc(Cl)cc1C(c1ccccc1)=NC2 [Adinazolam],8.28 min
3,CCC1C2CC3C4N(C)c5ccccc5C45CC(C2C5O)N3C1O (configuration not stated) [Ajmaline],5.19 min
4,CCc1cccc(CC)c1N(COC)C(=O)CCl [Alachlor],10.3 min
5,CCOC(=O)CCN(Cc1ccccc1)SN(C)C(=O)ON=C(C)SC [Alanycarb],10.8 min
6,CNC(=O)ON=CC(C)(C)S(C)(=O)=O [Aldicarb-sulfone (Aldoxycarb)],3.75 min
7,CNC(=O)ON=CC(C)(C)S(C)=O (configuration not stated) [Aldicarb-sulfoxide],3.5 min
8,CNC(=O)ON=CC(C)(C)SC [Aldicarb],6.17 min
9,C=CCC1=C(C)C(OC(=O)C2C(C=C(C)C(=O)OC)C2(C)C)CC1=O (configuration not stated) [Allethrin II],12.3 min
10,C=CCN(CC=C)C(=O)CCl [Allidochlor],6.37 min
11,OCc1nnc2n1-c1ccc(Cl)cc1C(c1ccccc1)=NC2 [Alprazolam- alpha-Hydroxy],8.11 min
12,Cc1nnc2n1-c1ccc(Cl)cc1C(c1ccccc1)=NC2O (configuration not stated) [Alprazolam-Hydroxy],7.81 min
13,Cc1nnc2n1-c1ccc(Cl)cc1C(c1ccccc1)=NC2 [Alprazolam],8.36 min
14,CCNc1nc(NC(C)C)nc(SC)n1 [Ametryn],9.16 min
15,CCN(CC)C(C)C(=O)c1ccccc1 (configuration not stated) [Amfepramone],4.11 min
16,CNC(=O)Oc1ccc(N(C)C)c(C)c1 [Aminocarb  (Metacil)],5.15 min
17,CCC1(c2ccc(N)cc2)CCC(=O)NC1=O (configuration not stated) [Aminoglutethimide],4.99 min
18,Cc1ccc(N=CN(C)C=Nc2ccc(C)cc2C)c(C)c1 [Amitraz],13.3 min
